Results as given in ChEMBL document CHEMBL1134970, “The TosMIC approach to 3-(oxazol-5-yl) indoles: application to the synthesis of indole-based IMPDH inhibitors” (Bioorg Med Chem Lett, 2002).

How the values were obtained:
[1] = target: Inosine-5'-monophosphate dehydrogenase 2 (Homo sapiens, UniProt P12268); experiment: Inhibitory concentration against Inosine-5'-monophosphate dehydrogenase 2 was determined
[2] = test system: CCRF-CEM; experiment: Inhibitory concentration against T-cell proliferation response in a CEM cell line (BMS-337197,CEM); format: functional, cell-based; conditions: Homo sapiens

IC50 [1] | IC50 [2] | Compound
> 5000 nM |  | Cc1cccc(NC(=O)Nc2ccc3c(-c4cnco4)cn(C)c3c2)c1
93 nM | > 10000 nM | c1ccc(-c2cnc(Nc3ccc4c(-c5cnco5)c[nH]c4c3)o2)cc1
35 nM | 3000 nM | CN(C(=O)CN1CCOCC1)c1ccccc1-c1cnc(Nc2ccc3c(-c4cnco4)c[nH]c3c2)o1
200 nM | > 10000 nM | Cc1cccc(NC(=O)Nc2ccc3c(-c4cnco4)c[nH]c3c2)c1
11 nM | > 10000 nM | Cc1ccc(NC(=O)Nc2ccc3c(-c4cnco4)c[nH]c3c2)cc1
40 nM | > 10000 nM | O=C(Nc1ccccc1)Nc1ccc2c(-c3cnco3)c[nH]c2c1
35 nM | 9700 nM | Cc1ccccc1NC(=O)Nc1ccc2c(-c3cnco3)c[nH]c2c1
205 nM | > 10000 nM | Cc1ccc(-c2cnc(Nc3ccc4c(-c5cnco5)c[nH]c4c3)o2)cc1

Further lines, the compound ahead of its results:

Compound | IC50 [1] | IC50 [2]
CC(=O)OCC(=O)N(C)c1ccccc1-c1cnc(Nc2ccc3c(-c4cnco4)c[nH]c3c2)o1 | 7 nM | 1000 nM
Cc1ccc(NC(=O)Nc2ccc3c(-c4cnco4)cn(C)c3c2)cc1 | > 5000 nM | 
Cc1ccccc1-c1cnc(Nc2ccc3c(-c4cnco4)c[nH]c3c2)o1 | 38 nM | > 10000 nM
Cc1cccc(-c2cnc(Nc3ccc4c(-c5cnco5)c[nH]c4c3)o2)c1 | 77 nM | 1500 nM
COc1cc(Nc2ncc(-c3ccccc3N(C)C(=O)CN3CCOCC3)o2)ccc1-c1cnco1 | 16 nM | 590 nM
COc1cc(NC(=O)Nc2cccc(C)c2)ccc1-c1cnco1 | 19 nM | 1000 nM
